Measured values as given in US8247211B2, “Glycopeptide antibiotics” (American Cyanamid Company, priority 2001, dated 2012).

Legend:
Assay in all cases: In vitro antibacterial evaluation: minimum inhibitory concentration (MIC), broth dilution method
Type in all cases: cell-based
Escherichia coli = conditions: for MIC Escherichia coli (ATCC 25922): strain ATCC 25922; for MIC Escherichia coli (GC 4559): strain GC 4559
Outline: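 MIC read as lowest drug level preventing visible growth. Organisms at 5×10^5 CFU/mL were exposed to a 64-0.06 μg/mL dilution series in Muller-Hinton II […] following NCCLS broth dilution standard M7-A2.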

Enterococcus sp. = system: Enterococcus sp.
Outline: (§1)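 Values are minimum inhibitory concentrations, meaning the smallest antibiotic concentration that stops growth of the organism. They come from broth dilution in Muller-Hinton II […] per NCCLS guidance (M7-A2), using 5×10^5 CFU/mL and concentrations from 64 to 0.06 μg/mL.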

Staphylococcus sp. = conditions: broth dilution, 18 hours at 35° C.
Outline: as §1

Streptococcus sp. = system: Streptococcus sp.
Outline: as §1

[1] = broth dilution, inoculum 5×10^5 CFU/mL, 18 hours at 35° C.

Cyclo[glycyl-β-methylphenylalanyl-O-[4-O-[4,6-O-β-(carboxymethoxy)benzylidene]hexopyranosyl]hexonyranosyl]tyrosyl-3-(2-iminoimidazolidin-4-yl)seryl-3-(3-hexopyranosyl-2-iminoimidazolidin-4-yl)serylseryl] [Example 166]
MIC Escherichia coli (ATCC 25922) (Escherichia coli): >64 µg/mL | MIC Escherichia coli (GC 4559) (Escherichia coli): >64 µg/mL | MIC Escherichi coli (GC 4560) (Escherichia coli; strain GC 4560): 2 µg/mL | MIC Enterococcus avium (GC 4558) (Enterococcus sp.; [1]): 32 µg/mL | MIC Enterococcus faecalis (ATCC 29212) (Enterococcus sp.; [1]): 32 µg/mL | MIC Enterococcus faecalis (GC 2242) (Enterococcus sp.; [1]): 32 µg/mL | MIC Enterococcus faecalis (GC 6189) (Enterococcus sp.; [1]): 32 µg/mL | MIC Enterococcus faecium (GC 2243) (Enterococcus sp.; [1]): 32 µg/mL | MIC Enterococcus faecium (GC 4556) (Enterococcus sp.; [1]): 32 µg/mL | MIC Enterococcus faecalis (ATCC 29212) (Enterococcus sp.; strain ATCC 29212): 32 µg/mL | MIC Enterococcus faecalis (GC 2242) (Enterococcus sp.; strain GC 2242): 32 µg/mL | MIC Enterococcus faecium (GC 2243) (Enterococcus sp.; strain GC 2243): 32 µg/mL | MIC Enterococcus faecium (GC 4556) (Enterococcus sp.; strain GC 4556): 32 µg/mL | MIC Enterococcus avium (GC 4558) (Enterococcus sp.; strain GC 4558): 32 µg/mL | MIC Enterococcus faecalis (GC 6189) (Enterococcus sp.; strain GC 6189): 32 µg/mL | MIC Coagulase Negative Staphylococcus (GC 4547) (Staphylococcus sp.; 5×10^5 CFU/mL): 4 µg/mL | MIC Coagulase Negative Staphylococcus (GC 4548) (Staphylococcus sp.; 5×10^5 CFU/mL): 4 µg/mL | MIC Coagulase Negative Staphylococcus (GC 4549) (Staphylococcus sp.; 5×10^5 CFU/mL): 4 µg/mL | MIC Coagulase Negative Staphylococcus (GC 6257) (Staphylococcus sp.; 5×10^5 CFU/mL): 4 µg/mL | MIC Staphylococcus aureus (ATCC 29213) (Staphylococcus sp.; 5×10^5 CFU/mL): 8 µg/mL | MIC Staphylococcus aureus (GC 1131) (Staphylococcus sp.; 5×10^5 CFU/mL): 8 µg/mL | MIC Staphylococcus aureus (GC 4541) (Staphylococcus sp.; 5×10^5 CFU/mL): 8 µg/mL | MIC Staphylococcus aureus-SMITH (GC 4543) (Staphylococcus sp.; 5×10^5 CFU/mL): 4 µg/mL | MIC Staphylococcus aureus (ATCC 29213) (Staphylococcus sp.; strain ATCC 29213): 8 µg/mL | MIC Staphylococcus aureus (GC 1131) (Staphylococcus sp.; strain GC 1131): 8 µg/mL | MIC Staphylococcus aureus (GC 4541) (Staphylococcus sp.; strain GC 4541): 8 µg/mL | MIC Staphylococcus aureus-SMITH (GC 4543) (Staphylococcus sp.; strain GC 4543): 4 µg/mL | MIC Coagulase Negative Staphylococcus (GC 4547) (Staphylococcus sp.; strain GC 4547): 4 µg/mL | MIC Coagulase Negative Staphylococcus (GC 4548) (Staphylococcus sp.; strain GC 4548): 4 µg/mL | MIC Coagulase Negative Staphylococcus (GC 4549) (Staphylococcus sp.; strain GC 4549): 4 µg/mL | MIC Coagulase Negative Staphylococcus (GC 6257) (Staphylococcus sp.; strain GC 6257): 4 µg/mL | MIC Streptococcus pneumoniae (ATCC 6301) (Streptococcus sp.; [1]): 1 µg/mL | MIC Streptococcus pneumoniae (GC 1894) (Streptococcus sp.; [1]): 1 µg/mL | MIC Streptococcus pneumoniae (ATCC 6301) (Streptococcus sp.; strain ATCC 6301): 1 µg/mL | MIC Streptococcus pneumoniae (GC 1894) (Streptococcus sp.; strain GC 1894): 1 µg/mL

Di-N-(4-tert-butylbenzyl)-cyclo[glycyl-β-methylphenylalanyl-O-(4-O-hexopyranosylhexopyranosyl)tyrosyl-3-(2-iminoimidazolidin-4-yl)seryl-3-(3-hexopyranosyl-2-iminoimidazolidin-4-yl)serylseryl] [Example 60a]
MIC Escherichia coli (ATCC 25922) (Escherichia coli): >128 µg/mL | MIC Escherichia coli (GC 4559) (Escherichia coli): >128 µg/mL | MIC Escherichia coli (GC 4560) (Escherichia coli; strain GC 4560): 16 µg/mL | MIC Enterococcus avium (GC 4558) (Enterococcus sp.; Enterococcus avium (GC 4558), broth dilution, 18 hours at 35° C.): 128 µg/mL | MIC Enterococcus faecalis (ATCC 29212) (Enterococcus sp.; Enterococcus faecalis (ATCC 29212), broth dilution, 18 hours at 35° C.): >128 µg/mL | MIC Enterococcus faecalis (GC 2242) (Enterococcus sp.; Enterococcus faecalis (GC 2242), broth dilution, 18 hours at 35° C.): >128 µg/mL | MIC Enterococcus faecalis (GC 2691) (Enterococcus sp.; Enterococcus faecalis (GC 2691), broth dilution, 18 hours at 35° C.): >128 µg/mL | MIC Enterococcus faecalis (GC 3059) (Enterococcus sp.; Enterococcus faecalis (GC 3059), broth dilution, 18 hours at 35° C.): >128 µg/mL | MIC Enterococcus faecalis (GC 4552) (Enterococcus sp.; Enterococcus faecalis (GC 4552), broth dilution, 18 hours at 35° C.): >128 µg/mL | MIC Enterococcus faecalis (GC 4553) (Enterococcus sp.; Enterococcus faecalis (GC 4553), broth dilution, 18 hours at 35° C.): 128 µg/mL | MIC Enterococcus faecalis (GC 4554) (Enterococcus sp.; Enterococcus faecalis (GC 4554), broth dilution, 18 hours at 35° C.): >128 µg/mL | MIC Enterococcus faecalis (GC 6189) (Enterococcus sp.; Enterococcus faecalis (GC 6189), broth dilution, 18 hours at 35° C.): >128 µg/mL | MIC Enterococcus faecium (GC 2243) (Enterococcus sp.; Enterococcus faecium (GC 2243), broth dilution, 18 hours at 35° C.): >128 µg/mL | MIC Enterococcus faecium (GC 4556) (Enterococcus sp.; Enterococcus faecium (GC 4556), broth dilution, 18 hours at 35° C.): >128 µg/mL | MIC Enterococcus faecium (GC 4557) (Enterococcus sp.; Enterococcus faecium (GC 4557), broth dilution, 18 hours at 35° C.): 128 µg/mL | MIC Enterococcus faecalis (ATCC 29212) (Enterococcus sp.; strain ATCC 29212): >128 µg/mL | MIC Enterococcus faecalis (GC 2242) (Enterococcus sp.; strain GC 2242): >128 µg/mL | MIC Enterococcus faecium (GC 2243) (Enterococcus sp.; strain GC 2243): >128 µg/mL | MIC Enterococcus faecalis (GC 2691) (Enterococcus sp.; strain GC 2691): >128 µg/mL | MIC Enterococcus faecalis (GC 3059) (Enterococcus sp.; strain GC 3059): >128 µg/mL | MIC Enterococcus faecalis (GC 4552) (Enterococcus sp.; strain GC 4552): >128 µg/mL | MIC Enterococcus faecalis (GC 4553) (Enterococcus sp.; strain GC 4553): 128 µg/mL | MIC Enterococcus faecalis (GC 4554) (Enterococcus sp.; strain GC 4554): >128 µg/mL | MIC Enterococcus faecium (GC 4556) (Enterococcus sp.; strain GC 4556): >128 µg/mL | MIC Enterococcus faecium (GC 4557) (Enterococcus sp.; strain GC 4557): 128 µg/mL | MIC Enterococcus avium (GC 4558) (Enterococcus sp.; strain GC 4558): 128 µg/mL | MIC Enterococcus faecalis (GC 6189) (Enterococcus sp.; strain GC 6189): >128 µg/mL | MIC Coagulase Negative Staphylococcus (GC 4547) (Staphylococcus sp.): >128 µg/mL | MIC Coagulase Negative Staphylococcus (GC 4548) (Staphylococcus sp.): >128 µg/mL | MIC Coagulase Negative Staphylococcus (GC 4549) (Staphylococcus sp.): >128 µg/mL | MIC Coagulase Negative Staphylococcus (GC 4551) (Staphylococcus sp.): >128 µg/mL | MIC Coagulase Negative Staphylococcus (GC 6257) (Staphylococcus sp.): >128 µg/mL | MIC Staphylococcus aureus (ATCC 29213) (Staphylococcus sp.): >128 µg/mL | MIC Staphylococcus aureus (GC 1131) (Staphylococcus sp.): >128 µg/mL | MIC Staphylococcus aureus (GC 3051) (Staphylococcus sp.): >128 µg/mL | MIC Staphylococcus aureus (GC 3053) (Staphylococcus sp.): >128 µg/mL | MIC Staphylococcus aureus (GC 4541) (Staphylococcus sp.): >128 µg/mL | MIC Staphylococcus aureus (GC 4542) (Staphylococcus sp.): >128 µg/mL | MIC Staphylococcus aureus (GC 4544) (Staphylococcus sp.): >128 µg/mL | MIC Staphylococcus aureus (GC 4545) (Staphylococcus sp.): >128 µg/mL | MIC Staphylococcus aureus SMITH (GC 4543) (Staphylococcus sp.): >128 µg/mL | MIC Staphylococcus haemolyticus (GC 4546) (Staphylococcus sp.): >128 µg/mL | MIC Staphylococcus aureus (ATCC 29213) (Staphylococcus sp.; strain ATCC 29213): >128 µg/mL | MIC Staphylococcus aureus (GC 1131) (Staphylococcus sp.; strain GC 1131): >128 µg/mL | MIC Staphylococcus aureus (GC 3051) (Staphylococcus sp.; strain GC 3051): >128 µg/mL | MIC Staphylococcus aureus (GC 3053) (Staphylococcus sp.; strain GC 3053): >128 µg/mL | MIC Staphylococcus aureus (GC 4541) (Staphylococcus sp.; strain GC 4541): >128 µg/mL | MIC Staphylococcus aureus (GC 4542) (Staphylococcus sp.; strain GC 4542): >128 µg/mL | MIC Staphylococcus aureus (GC 4544) (Staphylococcus sp.; strain GC 4544): >128 µg/mL | MIC Staphylococcus aureus (GC 4545) (Staphylococcus sp.; strain GC 4545): >128 µg/mL | MIC Staphylococcus haemolyticus (GC 4546) (Staphylococcus sp.; strain GC 4546): >128 µg/mL | MIC Coagulase Negative Staphylococcus (GC 4547) (Staphylococcus sp.; strain GC 4547): >128 µg/mL | MIC Coagulase Negative Staphylococcus (GC 4548) (Staphylococcus sp.; strain GC 4548): >128 µg/mL | MIC Coagulase Negative Staphylococcus (GC 4549) (Staphylococcus sp.; strain GC 4549): >128 µg/mL | MIC Coagulase Negative Staphylococcus (GC 4551) (Staphylococcus sp.; strain GC 4551): >128 µg/mL | MIC Coagulase Negative Staphylococcus (GC 6257) (Staphylococcus sp.; strain GC 6257): >128 µg/mL | MIC Staphylococcus aureus-SMITH (GC 4543) (Staphylococcus sp.; strain SMITH GC 4543): >128 µg/mL | MIC Streptococcus agalactiae (GC 4564) (Streptococcus sp.; Streptococcus agalactiae (GC 4564), broth dilution, 18 hours at 35° C.): >128 µg/mL | MIC Streptococcus pneumoniae (ATCC 6301) (Streptococcus sp.; Streptococcus pneumoniae (ATCC 6301), broth dilution, 18 hours at 35° C.): >128 µg/mL | MIC Streptococcus pneumoniae (GC 1894) (Streptococcus sp.; Streptococcus pneumoniae (GC 1894), broth dilution, 18 hours at 35° C.): 64 µg/mL | MIC Streptococcus pneumoniae (GC 4565) (Streptococcus sp.; Streptococcus pneumoniae (GC 4565), broth dilution, 18 hours at 35° C.): 128 µg/mL | MIC Streptococcus pyogenes (GC 4563) (Streptococcus sp.; Streptococcus pyogenes (GC 4563), broth dilution, 18 hours at 35° C.): >128 µg/mL | MIC Streptococcus pneumoniae (ATCC 6301) (Streptococcus sp.; strain ATCC 6301): >128 µg/mL | MIC Streptococcus pneumoniae (GC 1894) (Streptococcus sp.; strain GC 1894): 64 µg/mL | MIC Streptococcus pyogenes (GC 4563) (Streptococcus sp.; strain GC 4563): >128 µg/mL | MIC Streptococcus agalactiae (GC 4564) (Streptococcus sp.; strain GC 4564): >128 µg/mL | MIC Streptococcus pneumoniae (GC 4565) (Streptococcus sp.; strain GC 4565): 128 µg/mL
